US11117900B2 (Vertex Pharmaceuticals Incorporated, priority 2012, dated 2021)

Each compound was assayed on HCT116 colorectal cancer cells (assay: Cisplatin sensitization assay (96 h MTS cell viability)). Details: Cisplatin sensitization value.
Assay type: cell-based
Summary of the method: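 The MTS viability read, after 1 h with reagent, followed 96 h of co-treatment at 37° C. in 5% CO2. Both compound and cisplatin were titrated 2-fold from a 10 μM top final concentration in a complete concentration matrix on HCT116 cells. Scores +++/++/+ reflect cisplatin sensitization value ranges.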
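Note: compound concentration needed to lower the IC50 of Cisplatin alone by a set fold.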

Compound	Cisplatin Sensitization Assay
Nc1nn2cc(F)cnc2c1C(=O)Nc1cnccc1N1CCC(c2nnco2)CC1 [I-N-268, N-(4-(4-(1,3,4-oxadiazol-2-yl)piperidin-1-yl)pyridin-3-yl)-2-amino-6-fluoropyrazolo[1,5-a]pyrimidine-3-carboxamide]	+++ (Compounds with a Cisplatin sensitization value of <0.02 μM are marked with “+++.”)
Nc1nn2cc(F)cnc2c1C(=O)Nc1cnccc1N1CCC(S(=O)(=O)N2CCN3CCC2CC3)CC1 [I-N-196, N-(4-(4-(1,4-diazabicyclo[3.2.2]nonan-4-ylsulfonyl)piperidin-1-yl)pyridin-3-yl)-2-amino-6-fluoropyrazolo[1,5-a]pyrimidine-3-carboxamide]	+++ (Compounds with a Cisplatin sensitization value of <0.02 μM are marked with “+++.”)
CN1CCC(OC2CCN(c3ccncc3NC(=O)c3c(N)nn4cc(F)cnc34)CC2)CC1 [I-N-154, 2-amino-6-fluoro-N-(4-(4-((1-methylpiperidin-4-yl)oxy)piperidin-1-yl)pyridin-3-yl)pyrazolo[1,5-a]pyrimidine-3-carboxamide]	+++ (Compounds with a Cisplatin sensitization value of <0.02 μM are marked with “+++.”)
Cc1ncccc1-c1ccncc1NC(=O)c1c(N)nn2cc(F)cnc12 [I-C-20, 2-amino-6-fluoro-N-(2-methyl-[3,4′-bipyridin]-3′-yl)pyrazolo[1,5-a]pyrimidine-3-carboxamide]	+++ (Compounds with a Cisplatin sensitization value of <0.02 μM are marked with “+++.”)
CN1CCC(C(=O)N2CCN(c3c(F)cncc3NC(=O)c3c(N)nn4cc(F)cnc34)CC2)C1 (centres unmarked) [I-N-156, 2-amino-6-fluoro-N-(5-fluoro-4-(4-(1-methylpyrrolidine-3-carbonyl)piperazin-1-yl)pyridin-3-yl)pyrazolo[1,5-a]pyrimidine-3-carboxamide]	+++ (Compounds with a Cisplatin sensitization value of <0.02 μM are marked with “+++.”)
Cc1cncc(NC(=O)c2c(N)nn3cc(F)cnc23)c1N1CCN(C2CCOCC2)CC1 [I-N-123, 2-amino-6-fluoro-N-(5-methyl-4-(4-(tetrahydro-2H-pyran-4-yl)piperazin-1-yl)pyridin-3-yl)pyrazolo[1,5-a]pyrimidine-3-carboxamide]	++ (Compounds with a Cisplatin sensitization value >0.02 μM but <0.2 μM are marked with “++.”)
CC1(O)CN(C(=O)C2CCN(c3c(F)cncc3NC(=O)c3c(N)nn4cc(F)cnc34)CC2)C1 [I-G-63, 2-amino-6-fluoro-N-(5-fluoro-4-(4-(3-hydroxy-3-methylazetidine-1-carbonyl)piperidin-1-yl)pyridin-3-yl)pyrazolo[1,5-a]pyrimidine-3-carboxamide]	+++ (Compounds with a Cisplatin sensitization value of <0.02 μM are marked with “+++.”)
COc1ccc(-c2ccncc2NC(=O)c2c(N)nn3cc(F)cnc23)cn1 [I-C-27, 2-amino-6-fluoro-N-(6-methoxy-[3,4′-bipyridin]-3′-yl)pyrazolo[1,5-a]pyrimidine-3-carboxamide]	++ (Compounds with a Cisplatin sensitization value >0.02 μM but <0.2 μM are marked with “++.”)
Cc1ncn(-c2ccncc2NC(=O)c2c(N)nn3cc(F)cnc23)n1 [I-N-161, 2-amino-6-fluoro-N-(4-(3-methyl-1H-1,2,4-triazol-1-yl)pyridin-3-yl)pyrazolo[1,5-a]pyrimidine-3-carboxamide]	+ (Compounds with a Cisplatin sensitization value >0.2 μM but <5 μM are marked with “+.”)
Cn1cc(-c2ccncc2NC(=O)c2c(N)nn3cc(F)cnc23)ccc1=O [I-C-59, 2-amino-6-fluoro-N-(1-methyl-6-oxo-1,6-dihydro-[3,4′-bipyridin]-3′-yl)pyrazolo[1,5-a]pyrimidine-3-carboxamide]	++ (Compounds with a Cisplatin sensitization value >0.02 μM but <0.2 μM are marked with “++.”)
CN(C)CCOc1ccncc1NC(=O)c1c(N)nn2cc(Cl)cnc12 [I-O-48, 2-amino-6-chloro-N-(4-(2-(dimethylamino)ethoxy)pyridin-3-yl)pyrazolo[1,5-a]pyrimidine-3-carboxamide]	++ (Compounds with a Cisplatin sensitization value >0.02 μM but <0.2 μM are marked with “++.”)
Cc1nc(F)ccc1-c1ccncc1NC(=O)c1c(N)nn2cc(F)cnc12 [I-C-34, 2-amino-6-fluoro-N-(6-fluoro-2-methyl-[3,4′-bipyridin]-3′-yl)pyrazolo[1,5-a]pyrimidine-3-carboxamide]	+++ (Compounds with a Cisplatin sensitization value of <0.02 μM are marked with “+++.”)
Nc1nn2cc(F)cnc2c1C(=O)Nc1cnccc1N1CCN2CCOC[C@H]2C1 [I-N-116, (R)-2-amino-6-fluoro-N-(4-(hexahydropyrazino[2,1-c][1,4]oxazin-8(1H)-yl)pyridin-3-yl)pyrazolo[1,5-a]pyrimidine-3-carboxamide]	++ (Compounds with a Cisplatin sensitization value >0.02 μM but <0.2 μM are marked with “++.”)
Nc1nn2cc(F)cnc2c1C(=O)Nc1cncc(F)c1N1CCC(C(=O)N2CC(F)(F)C2)CC1 [I-G-73, 2-amino-N-(4-(4-(3,3-difluoroazetidine-1-carbonyl)piperidin-1-yl)-5-fluoropyridin-3-yl)-6-fluoropyrazolo[1,5-a]pyrimidine-3-carboxamide]	+++ (Compounds with a Cisplatin sensitization value of <0.02 μM are marked with “+++.”)
Cc1ccn(-c2ccncc2NC(=O)c2c(N)nn3cc(F)cnc23)n1 [I-N-225, 2-amino-6-fluoro-N-(4-(3-methyl-1H-pyrazol-1-yl)pyridin-3-yl)pyrazolo[1,5-a]pyrimidine-3-carboxamide]	++ (Compounds with a Cisplatin sensitization value >0.02 μM but <0.2 μM are marked with “++.”)
CN(C)[C@@H]1CCN(C(=O)C2CCN(c3c(F)cncc3NC(=O)c3c(N)nn4cc(F)cnc34)CC2)C1 [I-G-11, (R)-2-amino-N-(4-(4-(3-(dimethylamino)pyrrolidine-1-carbonyl)piperidin-1-yl)-5-fluoropyridin-3-yl)-6-fluoropyrazolo[1,5-a]pyrimidine-3-carboxamide]	+++ (Compounds with a Cisplatin sensitization value of <0.02 μM are marked with “+++.”)
N#CCc1cnc2c(C(=O)Nc3cnccc3OCCO)c(N)nn2c1 [I-O-33, 2-amino-6-(cyanomethyl)-N-(4-(2-hydroxyethoxy)pyridin-3-yl)pyrazolo[1,5-a]pyrimidine-3-carboxamide]	++ (Compounds with a Cisplatin sensitization value >0.02 μM but <0.2 μM are marked with “++.”)
Nc1nn2cc(F)cnc2c1C(=O)Nc1cnccc1N1CCS(=O)(=O)CC1 [I-N-210, 2-amino-N-(4-(1,1-dioxidothiomorpholino)pyridin-3-yl)-6-fluoropyrazolo[1,5-a]pyrimidine-3-carboxamide]	+++ (Compounds with a Cisplatin sensitization value of <0.02 μM are marked with “+++.”)
Nc1nn2cc(F)cnc2c1C(=O)Nc1cncc(F)c1N1CCN(C(=O)C2CC3CCCCN3C2)CC1 (centres unmarked) [I-N-203, 2-amino-6-fluoro-N-(5-fluoro-4-(4-(octahydroindolizine-2-carbonyl)piperazin-1-yl)pyridin-3-yl)pyrazolo[1,5-a]pyrimidine-3-carboxamide]	+++ (Compounds with a Cisplatin sensitization value of <0.02 μM are marked with “+++.”)
COc1cncc(NC(=O)c2c(N)nn3cc(F)cnc23)c1C1CC1 [I-C-84, 2-amino-N-(4-cyclopropyl-5-methoxypyridin-3-yl)-6-fluoropyrazolo[1,5-a]pyrimidine-3-carboxamide]	++ (Compounds with a Cisplatin sensitization value >0.02 μM but <0.2 μM are marked with “++.”)
Nc1nn2cc(F)cnc2c1C(=O)Nc1cnccc1N1CCC(N2CCCC2=O)CC1 [I-N-230, 2-amino-6-fluoro-N-(4-(4-(2-oxopyrrolidin-1-yl)piperidin-1-yl)pyridin-3-yl)pyrazolo[1,5-a]pyrimidine-3-carboxamide]	+++ (Compounds with a Cisplatin sensitization value of <0.02 μM are marked with “+++.”)
CN1CCN(C(=O)C2CCN(c3c(Cl)cncc3NC(=O)c3c(N)nn4cc(F)cnc34)CC2)CC1 [I-G-3, 2-amino-N-(5-chloro-4-(4-(4-methylpiperazine-1-carbonyl)piperidin-1-yl)pyridin-3-yl)-6-fluoropyrazolo[1,5-a]pyrimidine-3-carboxamide]	+++ (Compounds with a Cisplatin sensitization value of <0.02 μM are marked with “+++.”)
N#CCc1cnc2c(C(=O)Nc3cnccc3OC3COC3)c(N)nn2c1 [I-O-38, 2-amino-6-(cyanomethyl)-N-(4-(oxetan-3-yloxy)pyridin-3-yl)pyrazolo[1,5-a]pyrimidine-3-carboxamide]	+++ (Compounds with a Cisplatin sensitization value of <0.02 μM are marked with “+++.”)
Nc1nn2cc(F)cnc2c1C(=O)Nc1cnccc1N1CCC2(CCNC2)CC1 [I-N-255, N-(4-(2,8-diazaspiro[4.5]decan-8-yl)pyridin-3-yl)-2-amino-6-fluoropyrazolo[1,5-a]pyrimidine-3-carboxamide]	++ (Compounds with a Cisplatin sensitization value >0.02 μM but <0.2 μM are marked with “++.”)
Nc1nn2cc(F)cnc2c1C(=O)Nc1cncc(F)c1N1CCC(c2nccs2)CC1 [I-N-184, 2-amino-6-fluoro-N-(5-fluoro-4-(4-(thiazol-2-yl)piperidin-1-yl)pyridin-3-yl)pyrazolo[1,5-a]pyrimidine-3-carboxamide]	++ (Compounds with a Cisplatin sensitization value >0.02 μM but <0.2 μM are marked with “++.”)
N#CCc1cnc2c(C(=O)Nc3cnccc3OC3CCOCC3)c(N)nn2c1 [I-O-30, 2-amino-6-(cyanomethyl)-N-(4-((tetrahydro-2H-pyran-4-yl)oxy)pyridin-3-yl)pyrazolo[1,5-a]pyrimidine-3-carboxamide]	+++ (Compounds with a Cisplatin sensitization value of <0.02 μM are marked with “+++.”)
